Read-outs that look alike come from different tables or passages of the source.
Assays:
[1] = system: 786-O (renal cell carcinoma) cells; assay: Cell proliferation (Alamar Blue) assay, 786-O cells; format: cell-based; details: Homo sapiens, 786-0, 786-O cells, Alamar Blue
Protocol: (§1) Cell viability assay was performed to assess the potency of the compounds in human cancer cell lines 786-0 (renal cell carcinoma) and SJSA-1 (osteosarcoma). Additional cell lines, such as pancreatic cancer cell lines (Panc 02.13, BxPC-3, Panc 12, Panc 02.03, Panc 6.03, PSN-1, HPAC, and Capan-1), prostate cancer cell lines (PC-3, DU145, […], NCI-H660, 1PH1 LNCaP, BM-1604, and MDA PCa 2b), etc., can be tested in a similar method.
(§2) Cells (SJSA-1, 786-0 and A431) were seeded (5000 cells/100 μL/well) in 96-well tissue culture plate and incubated at 37° C./500 CO2 for 16-24 hours. The cells were then treated with compounds (25 μL of 5×). The compound concentrations were 10-0.0005 μM prepared in 3-fold serial dilutions with final DMSO concentration of 1%. The plates were then incubated for 24 h at 37° C./[…] in a moist environment. Then Alamar Blue™ reagent (final concentration 1×-12.5 μL) was added to each well and incubated for 1.5 hours at 37° C./500 CO2. The plates were read on fluorescence reader at 540 nm excitation and 590 nm emission wavelengths. The IC50 values were subsequently determined using a sigmoidal dose-response curve (variable slope) in GraphPad Prism® 5 software. Tables A-3 and B-11 show cell proliferation data for exemplary compounds as described herein.

[2] = system: 786-O cells + Ferrastatin-1; assay: GPX4 inhibition assay: cell proliferation (Alamar Blue) in 786-O cells with ferrostatin rescue; format: cell-based, human
Protocol: as §2
Studies have shown that lipophilic antioxidants, such as ferrostatin, can rescue cells from GPX4 inhibition-induced ferroptosis. For instance, mesenchymal state GPX4-knockout cells can survive in the presence of ferrostatin, however, when the supply of ferrostatin is terminated, these cells undergo ferroptosis (see, e.g., Viswanathan et al., Nature 547:453-7, 2017). […] Accordingly, the ability of a molecule to induce ferroptotic cancer cell death, and that such ability is admonished by the addition of ferrostatin, is clear indication that the molecule is an GPX4 inhibitor. Cell proliferation data for exemplary compounds with and without ferrostatin can be seen in Table A-3.

[3] = system: A431 cells; assay: Cell proliferation (Alamar Blue) assay, A431 cells; format: cell-based; details: Homo sapiens, A-431, A431 cells, Alamar Blue
Protocol: as §1, §2

[4] = 24 h compound treatment, read-out: IC50 (μM) 786-O
[5] = 786-O cells in presence of Ferrastatin-1 (rescue), read-out: IC50 (μM) 786-O + Ferrastatin-1
[6] = 24 h compound treatment, read-out: IC50 (μM) A431
[7] = 24 h compound incubation, read-out: Cell proliferation IC50 (μM) 786-O
[8] = 786-O cells with Ferrastatin-1 (rescue), read-out: Cell proliferation IC50 (μM) 786-O + Ferrastatin-1
[9] = 24 h compound incubation, read-out: Cell proliferation IC50 (μM) A431

IC50 [1, 4] [µM] | IC50 [2, 5] [µM] | IC50 [3, 6] [µM] | Compound | IC50 [1, 7] [µM] | IC50 [2, 8] [µM] | IC50 [3, 9] [µM]
0.005 | 7.15 | 2.43 | C#CC(=O)N1[C@@H](CCCC)Cc2cc(CO)ccc2[C@@H]1c1ccc(NC23CC4CC(CC(C4)C2)C3)cc1 [Compound B-62] | – | – | –
0.021 | – | – | C#CC(=O)N1[C@@H](CCCC)Cc2cc(OC)ccc2[C@@H]1c1ccc(NC23CC4CC(CC(C4)C2)C3)c(C#N)c1 [Compound B-8] | – | – | –
– | – | – | COc1ccc2c(c1)C[C@H](C1CCC1)N(C(=O)C#C[Si](C)(C)C)[C@H]2c1ccc(NC23CC4CC(CC(C4)C2)C3)cc1 [Compound A-7, 1-((1S,3R)-1-(4-(((3R,5R,7R)-adamantan-1-yl)amino)phenyl)-3-cyclobutyl-6-methoxy-3,4-dihydroisoquinolin-2(1H)-yl)-3-(trimethylsilyl)prop-2-yn-1-one] | 0.021 | > 1 | –
0.025 | 1.91 | 3.06 | C#CC(=O)N1[C@@H](CCCC)Cc2cc(OC)ccc2[C@@H]1c1cccc(NC23CC4CC(CC(C4)C2)C3)c1 [Compound B-74] | – | – | –
0.005 | 2.18 | 2.12 | C#CC(=O)N1[C@@H](CCCC)Cc2cc(OCCO)ccc2[C@@H]1c1ccc(NC23CC4CC(CC(C4)C2)C3)cc1 [Compound B-60] | – | – | –
0.011 | 2.36 | 0.856 | C#CC(=O)N1[C@@H](CCCC)Cc2cc(NC(=O)C3CCCN3)ccc2[C@@H]1c1ccc(NC23CC4CC(CC(C4)C2)C3)cc1 (stereo partly shown) [Compound B-58] | – | – | –
0.0035 | – | 3.88 | C#CC(=O)N1[C@@H](COC)Cc2cc(OC)ccc2[C@@H]1c1ccc(NC23CC4CC(CC(C4)C2)C3)cc1 [Compound B-41] | – | – | –
0.037 | 0.056 | 0.881 | C#CC(=O)N1[C@@H](CCCC)Cc2cc(OC)ccc2[C@@H]1c1ccc(NC23CC4CC(CC(C4)C2)C3)c(F)c1 [Compound B-84] | – | – | –
0.024 | 1.71 | 1.84 | C#CC(=O)N1[C@@H](CCCC)Cc2cc(OC)ccc2[C@@H]1c1cc(F)c(NC23CC4CC(CC(C4)C2)C3)c(F)c1 [Compound B-82] | – | – | –
0.192 | – | > 1 | C#CC(=O)N1[C@@H](CCCC)Cc2cc(OC)ccc2[C@H]1c1ccc(NC23CC4CC(CC(C4)C2)C3)cc1 [Compound B-2] | – | – | –
– | – | – | CCCC[C@H]1Cc2cc(OC)ccc2[C@H](c2ccc(N3CCC(F)(F)C3)cc2)N1C(=O)C#C[Si](C)(C)C [Compound A-12, 1-((1S,3S)-3-butyl-1-(4-(3,3-difluoropyrrolidin-1-yl)phenyl)-6-methoxy-3,4-dihydroisoquinolin-2(1H)-yl)-3-(trimethylsilyl)prop-2-yn-1-one] | 0.051 | > 1 | > 1
0.047 | – | – | C#CC(=O)N1[C@@H](COC)Cc2cc(OC)ccc2[C@H]1c1ccc(NC23CC4CC(CC(C4)C2)C3)cc1 [Compound B-45] | – | – | –
– | – | – | CCCC[C@H]1Cc2cc(OC)ccc2[C@H](c2ccc(NC34CC5CC(CC(C5)C3)C4)c(Cl)c2)N1C(=O)C#C[Si](C)(C)C [Compound A-46] | 0.31 | – | ≥ 10
0.006 | – | 4.1 | C#CC(=O)N1[C@@H](CCC)Cc2cc(OC)ccc2[C@@H]1c1ccc(NC23CC4CC(CC(C4)C2)C3)cc1 [Compound B-43] | – | – | –
– | – | – | CCCC[C@H]1Cc2cc(OC)ccc2[C@H](c2ccc(NC34CC5CC(CC(C5)C3)C4)cc2)N1C(=O)C#C[Si](C)(C)CCCOC(C)=O [Compound A-41] | 0.0125 | 1.86 | 0.563
0.01 | – | – | C#CC(=O)N1[C@@H](CC2CC2)Cc2cc(OC)ccc2[C@@H]1c1ccc(NC23CC4CC(CC(C4)C2)C3)cc1 [Compound B-50] | – | – | –
0.052 | 5.84 | 2.37 | C#CC(=O)N1[C@@H](CCCC)Cc2cc(OC)ccc2[C@@H]1c1ccc(NC2CCC2)c(Cl)c1 [Compound B-59] | – | – | –
– | – | – | CCCC[C@H]1Cc2cc(OC)ccc2[C@H](c2ccc(NC3CCC3)cc2)N1C(=O)C#C[Si](C)(C)C [Compound A-25, 1-((1S,3S)-3-butyl-1-(4-(cyclobutylamino)phenyl)-6-methoxy-3,4-dihydroisoquinolin-2(1H)-yl)-3-(trimethylsilyl)prop-2-yn-1-one] | 0.171 | > 1 | –
– | – | – | COC[C@H]1Cc2cc(OC)ccc2[C@@H](c2ccc(NC34CC5CC(CC(C5)C3)C4)cc2)N1C(=O)C#C[Si](C)(C)C [Compound A-5] | 0.039 | > 1 | > 1

IC50 [1, 4] [µM] | IC50 [2, 5] [µM] | IC50 [3, 6] [µM] | Compound | IC50 [1, 7] [µM] | IC50 [2, 8] [µM] | IC50 [3, 9] [µM]
– | – | – | CCCC[C@H]1Cc2cc(OC)ccc2[C@H](c2ccc(NC34CC5CC(CC(C5)C3)C4)c(C#N)c2)N1C(=O)C#C[Si](C)(C)C [Compound A-15, 2-(((3R,5R,7R)-adamantan-1-yl)amino)-5-((1S,3S)-3-butyl-6-methoxy-2-(3-(trimethylsilyl)propioloyl)-1,2,3,4-tetrahydroisoquinolin-1-yl)benzonitrile] | 0.021 | > 1 | –
0.049 | – | > 10 | C#CC(=O)N1[C@@H](CC2CC2)Cc2cc(OC)ccc2[C@@H]1c1ccc(C#N)cc1 [Compound B-37] | – | – | –
0.054 | – | > 1 | C#CC(=O)N1[C@@H](CCC)Cc2cc(OC)ccc2[C@H]1c1ccc(NC23CC4CC(CC(C4)C2)C3)cc1 [Compound B-44] | – | – | –
0.195 | – | > 10 | C#CC(=O)N1[C@@H](COCC)Cc2cc(OC)ccc2[C@@H]1c1ccc(C#N)cc1 [Compound B-39] | – | – | –
0.016 | – | – | C#CC(=O)N1[C@@H](c2ccc(NC34CC5CC(CC(C5)C3)C4)cc2)c2ccc(OC)cc2C[C@@H]1C1CCC1 [Compound B-4] | – | – | –
0.06 | – | > 1 | C#CC(=O)N1[C@@H](CCCC)Cc2cc(OC)ccc2[C@@H]1c1ccc(N2CCC(F)(F)C2)cc1 [Compound B-14] | – | – | –
0.18 | – | 7.5 | C#CC(=O)N1CCc2cc(OC)ccc2C1c1ccc(C#N)cc1 (stereo not shown) [Compound B-28] | – | – | –
0.42 | – | 3.5 | C#CC(=O)N1[C@@H](c2ccc(C#N)cc2)c2ccc(OC)cc2C[C@@H]1C [Compound B-32, 4-[(1S,3S)-6-methoxy-3-methyl-2-(prop-2-ynoyl)-1,2,3,4-tetrahydroisoquinolin-1-yl]benzonitrile] | – | – | –
0.145 | – | > 1 | C#CC(=O)N1[C@@H](CCCC)Cc2cc(OC)ccc2[C@@H]1C12CC(F)(C1)C2 [Compound B-5] | – | – | –
0.016 | – | 3.67 | C#CC(=O)N1[C@@H](CCCC)Cc2cc(OC)ccc2[C@@H]1c1ccc(C#N)cc1 [Compound B-31] | – | – | –
0.037 | – | 8.73 | C#CC(=O)N1[C@@H](CCCC)Cc2cc(OC)ccc2[C@@H]1c1ccccc1 [Compound B-29] | – | – | –
0.395 | – | > 10 | C#CC(=O)N1CCc2cc(OC)ccc2C1c1ccc(F)cc1 (stereo not shown) [Compound B-26] | – | – | –
0.072 | – | 4.9 | C#CC(=O)N1[C@H](c2ccc(NC34CC5CC(CC(C5)C3)C4)cc2)c2ccc(OC)cc2C[C@@H]1C1CCC1 [Compound B-51] | – | – | –
– | – | – | CCCC[C@H]1Cc2cc(OC)ccc2[C@H](c2ccc(NC34CC5CC(CC(C5)C3)C4)cc2)N1C(=O)C#C[Si](C)(C)CC [Compound A-33, 1-((1S,3S)-1-(4-(((1s,3R)-adamantan-1-yl)amino)phenyl)-3-butyl-6-methoxy-3,4-dihydroisoquinolin-2(1H)-yl)-3-(ethyldimethylsilyl)prop-2-yn-1-one] | 0.023 | > 1 | –
– | – | – | CCC[C@H]1Cc2cc(OC)ccc2[C@H](c2ccc(NC34CC5CC(CC(C5)C3)C4)cc2)N1C(=O)C#C[Si](C)(C)C [Compound A-3] | 0.029 | > 1 | –
0.0145 | – | 6.58 | C#CC(=O)N1[C@@H](CCCC)Cc2ccc(OC)cc2[C@@H]1c1ccc(NC23CC4CC(CC(C4)C2)C3)cc1 [Compound B-42, 1-((1S,3S)-1-(4-(((3R,5R,7R)-adamantan-1-yl)amino)phenyl)-3-butyl-7-methoxy-3,4-dihydroisoquinolin-2(1H)-yl)prop-2-yn-1-one] | – | – | –
0.067 | – | > 1 | C#CC(=O)N1[C@@H](CCCC)Cc2cc(OC)ccc2[C@H]1C12CC(F)(C1)C2 [Compound B-6] | – | – | –
0.198 | – | 3.5 | C#CC(=O)N1CCc2cc(OC)ccc2C1c1ccccc1 (stereo not shown) [Compound B-24] | – | – | –
0.006 | – | 4.52 | C#CC(=O)N1[C@@H](CCCC)Cc2cc(F)ccc2[C@@H]1c1ccc(NC23CC4CC(CC(C4)C2)C3)cc1 [Compound B-40] | – | – | –

— patent US20240092739A1, “COMPOUNDS AND METHODS OF USE” (Ferro Therapeutics, Inc, priority 2020, published 2024)
